These results are taken from patent US20110059977A1 (priority 2006, published 2011).

≈ marks a conversion by molar mass, not a printed value. Read-outs that look alike come from different tables or passages of the source.

Test [1] relates to Mycobacterium bovis BCG. The test can be described thus: microbe, parasite or virus in culture. It is filed as cell-based. The settings on record: for MIC: Mycobacterium tuberculosis variant bovis BCG, BCG, 144 h.
A further test concerns M. tuberculosis H37Rv. The test can be described thus: In vitro tests on Mycobacterium tuberculosis (MIC in 7H11 agar medium).
Test [2] relates to Mycobacterium bovis BCG. It is filed as in vivo, C57B1/6 female mice. The settings on record: BCG-infected mice, 20 mg/kg/day intraperitoneally, 5 days.
Test [3] relates to mc^2155 strain of M. smegmatis. The test can be described thus: In vitro assays on Mycobacterium smegmatis (MIC, resazurin coloration microdilution method). It is filed as cell-based. Here is the method:
All molecules to be tested are prepared in dimethylsulfoxide (DMSO) at a concentration of 50 mg/ml and frozen until use.
20 μl of each dilution for each molecule are prepared in 100 μl of the Dubos culture medium (Difco, USA), and then distributed into 96 well plates, at a concentration between 100-0.75 μg/ml.
Control wells containing DMSO alone and ethambutol (Etibi®, Myambutol®) or ofloxacine (synthesis antibiotic belonging to the fluoroquinolone family) are included at a concentration between […].
The plates are covered, sealed and incubated at 37° C. during 48 hours.
Minimal Inhibitory Concentrations (MIC) are determined using the resazurin coloration microdilution method. The powdery resazurin salt (Sigma) is prepared at a concentration of 0.01% (weight/vol) in distilled water, and the solution is then sterilized by 0.22 μm membrane filtration, and kept at 4° C. during one week.
Into the plates as incubated during 48 hours, 30 μl of a resazurin solution are added in each well. The plates are then incubated at 37° C. during 24 hours. The colour variation from blue to pink is indicative of a decrease in resazurin which corresponds to the development of the bacterial colony. The MIC is determined as being the lowest concentration to prevent a colour change. The optical density of each well is measured at 530-630 nm using a micro-plate reader, The MIC is determined by drawing the dose-optical density response curve.
For orientation: The colour change of resazurin is a common sign of viable cells or microbes.

The subject of the next test is M. avium 101. The test can be described thus: In vitro tests on Mycobacterium avium (MIC in 7H11 agar medium). The test is classed as cell-based. The settings on record: for MIC: Mycobacterium avium, 101, read-out: MIC on Mycobacterium avium. The text has this:
All tests are repeated three times.

In the next test the test system is M. smegmatis. The settings on record: cited from earlier work.
Setting [4] is: read-out: Minimal Inhibitory Concentration MIC (μg/mL).
Where [5] appears, read: read-out: Minimal Inhibitory Concentration MIC (μmol/L).
[6] abbreviates: Mycobacterium bovis BCG, 6 days at 37° C., 7H9 medium.

As for `Nc1cc(=O)n2c3ccccc3c3ccnc1c32`, the MIC in the test with Mycobacterium bovis BCG [1] (setting [4]) worked out at 10 µg/mL; in the test with Mycobacterium bovis BCG [1] (setting [5]), 42.5 µmol/L.

In the case of `COc1ccc2c(c1)c1ccnc3ccc(=O)n2c31` [10-methoxy-canthin-6-one], the MIC in the test on Mycobacterium bovis BCG [1] (setting [4]) came to 7.5 µg/mL; in the test with Mycobacterium bovis BCG [1] (setting [5]), 30 µmol/L.

With `O=c1c2ccccc2c2nccc3c4ccccc4n1c32` [Benzo[e]canthin-6-one], in the test on Mycobacterium bovis BCG [1], the “Activity against Mycobacterium bovis BCG in vitro (in words)” value (shortened to “Activity against Mycobacterium bovis BCG”) was “most active”. Also, the MIC in the test with Mycobacterium bovis BCG [1] (setting [4]) lay within 2.5 to 5 µg/mL; with Mycobacterium bovis BCG [1] (setting [5]) it was 9.2 to 18.4 µmol/L.

For `O=c1ccc2nccc3c4ccccc4n1c23` [Canthin-6-one], the “Efficiency against Mycobacterium tuberculosis (in words)” value in the test with M. tuberculosis H37Rv is listed as “efficient”. Besides, the “In vivo antituberculous efficiency (number of bacteria in spleen, liver and lungs; in words)” value in the test with Mycobacterium bovis BCG [2] is recorded as “efficient”. The results for the “Activity against Mycobacterium bovis BCG” value in the test with Mycobacterium bovis BCG [1] and in the test with Mycobacterium bovis BCG [1] (listed as Canthin-5-one) were “most active” and “surprising efficiency”, respectively. For the same molecule, the MIC is 7.5 µg/mL with Mycobacterium bovis BCG [1] (setting [4]) and 34.1 µmol/L in the test with Mycobacterium bovis BCG [1] (setting [5]). Also, in test [3], the “Efficiency against Mycobacterium smegmatis (in words)” value is “efficient”. Further, the “Efficiency against Mycobacterium avium (in words)” value with M. avium 101 is on record as “efficient”.

Take `O=c1ccc2c3c(cc[n+]2CCBr)c2ccccc2n13.[Br-]` [N-bromoéthyl-canthin-6-one bromide]: the “Activity against Mycobacterium bovis BCG” value in the test on Mycobacterium bovis BCG [1] was “most active”. Further, the MIC in the test with Mycobacterium bovis BCG [1] (setting [4]) lay in the range of 1 to 5 µg/mL; in the test with Mycobacterium bovis BCG [1] (setting [5]) it was 3 to 15.3 µmol/L.

Regarding `O=c1c2ccccc2c2c3c(cc[n+]2[O-])c2ccccc2n13` [N-oxide-benzo[e]canthin-6-one], the figures for the MIC in the test on Mycobacterium bovis BCG [1] (setting [4]) and with Mycobacterium bovis BCG [1] (setting [5]) were 10 µg/mL and 34.8 µmol/L, respectively.

For `O=c1ccc2c3c(cc[n+]2[O-])c2ccccc2n13` [N-oxide-canthin-6-one], the “Activity against Mycobacterium bovis BCG” value in the test with Mycobacterium bovis BCG [1] is “most active”. Further, the MIC in the test with Mycobacterium bovis BCG [1] (setting [4]) is 2.5 to 5 µg/mL; in the test with Mycobacterium bovis BCG [1] (setting [5]), 10.6 to 21.2 µmol/L.

As for `O=c1c2nccnc2c2nccc3c4ccccc4n1c32` [Pyrazine[e]canthin-6-one], the MIC in the test with Mycobacterium bovis BCG [1] (setting [4]) was found to be 10 µg/mL; in the test with Mycobacterium bovis BCG [1] (setting [5]) it was 36.8 µmol/L.

Turning to `NNC(=O)c1ccncc1` [isoniazide, reference compound], in the test on M. smegmatis (isoniazide 10 μg/mL), the “Susceptibility of M. smegmatis” value was “resistant”. Also, in the test on Mycobacterium bovis BCG [1] (setting [6]), the “Minimal Inhibitory Concentration MIC (μg/mL)” value is 0.1 µg/mL. Also, the results for the MIC in the test on Mycobacterium bovis BCG [1] (setting [4]), in the test with Mycobacterium bovis BCG [1] (setting [5]) and in the test with M. avium 101 were 0.1 µg/mL, 0.73 µmol/L and 0.1 µg/mL (≈ 0.729 µM), respectively.

Take `CC1COc2c(N3CCN(C)CC3)c(F)cc3c(=O)c(C(=O)O)cn1c23` (stereo not shown) [ofloxacin]: in the test on M. tuberculosis H37Rv (H37Rv, 7H11 agar, 21-30 days at 37° C.), the “MIC on Mycobacterium tuberculosis” value was determined as 1 µg/mL (≈ 2.77 µM). Also, the MIC in test [3] (Mycolicibacterium smegmatis, mc^2155 strain, Dubos medium, resazurin, read-out: MIC (CMI) on Mycobacterium smegmatis) turned out to be 1 µg/mL (≈ 2.77 µM); with M. avium 101, 6.2 µg/mL (≈ 17.2 µM).

As for ethambutol [reference compound], in the test with M. smegmatis (ethambutol 5 μg/mL), the “Susceptibility of M. smegmatis” value is “reacts”. In the test with Mycobacterium bovis BCG [1] (setting [6]), the “Minimal Inhibitory Concentration MIC (μg/mL)” value is 5 µg/mL and the “Minimal Inhibitory Concentration MIC (μmol/L)” value was determined as 24.5 µmol/L. Moreover, the “MIC (CMI) on Mycobacterium smegmatis” value in test [3] (mc^2155 strain, Dubos medium, resazurin) came out at 0.5 µg/mL.
